# Columns and labels:
# [1] = test system: leukotriene C4 -induced contraction of guinea pig peripheral strips; assay: SRS-A antagonists (SALTI): leukotriene C4-induced contraction of guinea pig peripheral lung strips; settings: Cavia porcellus; 0.2 μM leukotriene C4-induced contraction; read-out: SALTI, I50 μM
# Method: Protocol for SRS-A (Slow-reacting Substance of Anaphylaxis Antagonists (SALTI)
# Peripheral strips of guinea pig lungs are prepared and hung in tissue baths (Metro #ME-5505, 10 ml) according to the published procedure (Pro. Nat'l. Acad. Sci., U.S.A. Volume 77, pp. 4354-4358, 1980). The strips are thoroughly rinsed in Assay Buffer and then connected with surgical silk thread to the support rods from the tissue baths. The rods are adjusted in the baths and the strips connected to the pressure transducers (Grass FT 103 or Gould UC-3). The tissue baths are aerated with 95% oxygen 5% carbon dioxide and maintained at 37° C. The Assay Buffer has been made as follows: For each liter of buffer the following are added to approximately 800 ml of water distilled in glass--6.87 g. NaCl, 0.4 g. KCl, […]. NaHCO3, 0.14 g. NaH2 PO4.H2 O, 0.21 g. MgSO4.7H2 O, and 2.0 g. D-glucose. Then a solution of 0.368 g. CaCl2.2H2 O in 100 ml glass-distilled water is slowly added to the buffer. Sufficient water is added to adjust the volume to one liter, and the solution is aerated with 95% oxygen--5% carbon dioxide. Usually 10 liters of buffer are used for an experiment with 4 tissues.
# After the tissues have been repeatedly washed and allowed to equilibrate in the tissue bath, they are challenged with 1 μM histamine. After maximum contractions have been obtained, the tissues are washed, and allowed to relax back to baseline tension. This histamine challenge procedure is repeated at least 1 to 2 more times to obtain a repeatable control response. The average response to 1 μM histamine for each tissue is used to normalize all other challenges.
# Responses of each tissue to a predetermined concentration of leukotriene are then obtained. Usually test compounds are examined initially at 30 μM on resting tension of the tissues without any added agonist or antagonist to determine if the compound has any possible intrinsic activity. The tissues are washed, and the test compound is added again. Leukotriene is added after the desired pre-incubation time. The intrinsic activity of the compounds, and their effect on leukotriene-induced contractions are then recorded.
# The concentration required for 50% inhibition of 0.2 μM leukotriene C4 -induced contraction of guinea pig peripheral strips for representative compounds of the present invention is shown in Table 3.
# Phospholipase C (PLC) = assay: In vitro assay for inhibitors of Phospholipase C (PLC) from rat platelets; type: biochemical; settings: read-out: PLC, I50
# Description: A. Protocol For In Vitro Assay For Inhibitors Of Phospholipase C (PLC)
# The PLC employed in this screen is obtained by aggregation of purified rat platelets in the presence of CaCl2 and ADP. In the enzyme assay phosphatidylinositol having ^3 H -labeled arachidonate residues at R2 is employed as substrate. PLC acts by cleaving the phosphate ester bond yielding diglyceride as follows: [drawing 18]
# Following completion of the reaction, the assay medium is acidified and extracted with hexane which takes up unreacted substrate and diglyceride. The hexane extract is passed over a short silica gel column which retains 99% of the phosphatidylinositol. The ^3 H-labeled diglyceride is not retained […]. The diglyceride is conveniently quantitated by liquid scintillation spectrometry.
# The compounds were tested at 300 u in a buffer containing 0.06 mM unlabeled phosphatidylcholine (PC), 20-30,000 cpm of (CPC), 150 mM NaCl, 5 mM CaCl2 and 50 mM tris(hydroxymethyl)methylaminopropanesulfonic acid buffer, adjusted to pH 9.0 with 1N NaOH. The temperature of the buffer was maintained at a temperature of 37° C. The reaction was initiated by addition of the enzyme and it was terminated 10 minutes later by addition of 1 ml of 1N HCl.
# Following acidification, the samples were extracted with 2 ml of isopropyl alcohol and 2 ml of hexane, vortexed and allowed to stand until the phases separate. […] and some unreacted substrate were taken up in the isopropanol-saturated hexane. The hexane phase of the extraction mixture was transferred to a short silica gel column which retains unreacted phosphatidylinositol, but not the 3H-diglyceride. The column effluent was collected directly in scintillation vials. The columns were washed once with additional 2 ml of hexane. The radiolabelled diglycerides were quantitated by liquid scintillation.
# Phospholipase A2 (PLA2) = biological target: T1, Phospholipase A2 (PLA2) (Rattus norvegicus, UniProt P14423); assay: In vitro assay for inhibitors of Phospholipase A2 (PLA2) from rat platelets; type: biochemical; settings: pH 7.2, 37° C.; read-out: PLA2, I50
# T1 construct: obtained by aggregation of purified rat platelets; from tissue; host or cells: rat platelets (enzyme obtained by aggregation)
# T1 sequence (P14423 22-146): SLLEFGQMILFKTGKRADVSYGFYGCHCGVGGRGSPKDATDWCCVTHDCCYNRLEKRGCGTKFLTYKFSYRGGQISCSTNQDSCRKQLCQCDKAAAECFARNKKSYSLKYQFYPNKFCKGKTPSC
# Description: B. In Vitro Assay For Inhibitors of Phospholipase A2 Assayed at pH 7.0 (PLA2)
# The PLA2 employed in this screen is obtained by aggregation of purified rat platelets. In the enzyme assay phosphatidylcholine having ^14 C-labeled palmitate residues at R1 and R2 is employed as substrate. PLA2 acts by cleaving the R2 fatty acid ester bond yielding free fatty acid and lysophosphatidyl choline as follows: [drawing 19]
# Following completion of the reaction, the assay medium is acidified and extracted with hexane, which takes up unreacted substrate and free fatty acid product. The hexane extract is passed over a short silica column which retains 99% of the phosphatidyl choline. The ^14 C-labeled palmitic acid is not retained (90% recovery in eluate) and is collected directly in scintillation counting vials. The released palmitic acid is conveniently quantitated by liquid scintillation spectrometry.
# The compounds were tested at 100 uM in a buffer containing 0.3 mM unlabeled phosphatidylcholine (PC), 20-30,000 cpm of ^14 C(CPC), […], 1 mM CaCl2 and 50 mM tris-HCl adjusted to pH 7.2 with 1N NaOH. […] The temperature of the buffer was maintained at a temperature of 37° C. The reaction was initiated by addition of the enzyme and it was terminated 30 minutes later by the addition of […] of 1N HCl.
# Following acidification, the samples were extracted with 2 ml of 2-propanol and 2 ml of hexane, vortexed and allowed to stand until the phases separated. Free fatty acids (FFA) and some unreacted substrate were taken up in the isopropanol-saturated hexane. The hexane phase of the extraction mixture was transferred to a short silica gel column which retained […] but not the FFA. The column effluent was collected directly in scintillation vials. The columns were washed once with an additional 2 ml of hexane. The radio labeled FFA were quantitated by liquid scintillation spectrometry.
smiles,measurement,setting,value
"Cc1c(C=CC=CC(=O)O)c2ccccc2n1Cc1ccccc1 [Example 12, 5-(1-Benzyl-2-methylindol-3-yl)-2,4-Pentadienoic Acid]",IC50,[1],15 µM
same,IC50,Phospholipase C (PLC),40 µM
same,IC50,Phospholipase A2 (PLA2),37 µM

# From patent US4758586A, “Indolyl compounds and hyposensitivity use thereof” (USV Pharmaceutical Corp., priority 1986, dated 1988)
